Experimental data reported in publication PMC12152147, “DDB1 engagement defines the selectivity of S656 analogs for cyclin K degradation over CDK inhibition” (EMBO Reports, 2025).
Like-named read-outs stand apart in the source and are kept apart here.

Tests used:
[1] = system: OCI-AML5 cells expressing shRNAs targeting CDK1, 2, 4, 7, 9, cyclin K; test: Dose response in OCI-AML5 expressing shRNAs targeting CDK1, 2, 4, 7, 9, cyclin K or control; format: cell-based, H. sapiens; conditions: for Class: class from shRNA IC50 profile and cyclin K-eGFP degradation
CDK9/CyclinT = biological target: T1, CDK9/CyclinT (Homo sapiens, UniProt P50750); test: CDK9/CyclinT in vitro kinase activity, single concentration 1 μM; format: biochemical; conditions: single concentration 1 μM
T1 construct: purchased BPS Bioscience 79628
Experimental: (§1) Kinase activity was assessed using the kinase assay kits from BPS Bioscience for CDK1, CDK9 and CDK12 with Kinase Glo MAX in duplicates. Compounds were tested at a single concentration of 1 μM for CDK1 and CDK9 activity, and in a dilution ranging from 0.64 nM to 50 μM for CDK12 activity. Chemiluminescence was read using the Neo Synergy BioTek plate reader.

[2] = system: OCI-AML5 cells expressing shRNA targeting CUL4A or CUL4B; test: Dose response in OCI-AML5 expressing shRNAs targeting CUL4A, CUL4B or control; format: cell-based, H. sapiens; conditions: ratio of IC50 in shCUL4A vs shCTRL OCI-AML5 cells
cyclin KeGFP = test: Cyclin KeGFP reporter system (eGFP/mCherry MFI by flow cytometry);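 note: 10 μM compound for 3 h relative to DMSO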; format: cell-based, H. sapiens; conditions: cyclin K-eGFP reporter
Experimental: We used the cyclin KeGFP reporter system previously described (Słabicki et al, [2020]). Lentiviral vector (Addgene plasmid #169930) was used to infect OCI-AML5 at a MOI of 5 and were selected with puromycin. Cells were seeded in methylcellulose and let grown as colonies for 10 days. Colonies were isolated, expanded and selected based on cyclin KeGFP fluorescence in presence and absence of cyclin K degrader molecules. Selected G7 clone was used for all reported experiments. Fluorescent signal of cyclin KeGFP and mCherry were quantified by flow cytometry (BD LSRII) in each condition and the geometric mean fluorescence intensity (MFI) were calculated using FlowJo (BD Biosciences). The ratio of eGFP to mCherry was normalized to DMSO-treated cells.

OCI-AML5 cells = test: Dose-response proliferative assay in OCI-AML5 (4 days, CellTiterGlo); format: cell-based, H. sapiens; conditions: read-out: IC50 in AML5
Experimental: Cell lines were purchased from the ATCC or donated from collaborators. OCI-AML5 cell line was cultured in αMEM, 10% heat-inactivated FBS supplemented with 10 ng/mL GM-CSF, OCI-AML1, U2OS and HEK293T cell lines in DMEM, 10% heat-inactivated FBS. Cells were maintained at 37 °C in 5% CO2 atmosphere.
Dose-response assays in primary AML specimens were performed as in chemical screen (see above) with the exception that compounds were tested in serial dilution (8 dilutions, 1:4, 10 μM down to 0.5 nM). Dose-response assays in OCI-AML5 cell line were conducted similarly with the following modifications: 300 cells per well were seeded in 50 μL of cell line media and cell viability was evaluated after 4 days in culture.

CDK1 = biological target: T2, CDK1 (Homo sapiens, UniProt P06493); test: CDK1 in vitro kinase activity, single concentration 1 μM; format: biochemical; conditions: single concentration 1 μM
T2 construct: purchased BPS Bioscience 79597
Experimental: as §1

[3] = Homo sapiens, OCI-AML-5, OCI-AML5 expressing shRNA CCNK (cyclin K), read-out: IC50 shRNA CCNK
[4] = Homo sapiens, OCI-AML-5, OCI-AML5 expressing shRNA CDK1, read-out: IC50 shRNA CDK1
[5] = Homo sapiens, OCI-AML-5, OCI-AML5 expressing shRNA CDK2, read-out: IC50 shRNA CDK2
[6] = Homo sapiens, OCI-AML-5, OCI-AML5 expressing shRNA CDK4, read-out: IC50 shRNA CDK4
[7] = Homo sapiens, OCI-AML-5, OCI-AML5 expressing shRNA CDK7, read-out: IC50 shRNA CDK7
[8] = Homo sapiens, OCI-AML-5, OCI-AML5 expressing shRNA CDK9, read-out: IC50 shRNA CDK9
[9] = Homo sapiens, OCI-AML-5, OCI-AML5 cells
[10] = OCI-AML5 expressing shRNA CCNK (cyclin K), read-out: IC50 shRNA CCNK
[11] = OCI-AML5 expressing shRNA CDK1, read-out: IC50 shRNA CDK1
[12] = OCI-AML5 expressing shRNA CDK2, read-out: IC50 shRNA CDK2
[13] = OCI-AML5 expressing shRNA CDK4, read-out: IC50 shRNA CDK4
[14] = OCI-AML5 expressing shRNA CDK7, read-out: IC50 shRNA CDK7
[15] = OCI-AML5 expressing shRNA CDK9, read-out: IC50 shRNA CDK9

T1 sequence (P50750 whole entry): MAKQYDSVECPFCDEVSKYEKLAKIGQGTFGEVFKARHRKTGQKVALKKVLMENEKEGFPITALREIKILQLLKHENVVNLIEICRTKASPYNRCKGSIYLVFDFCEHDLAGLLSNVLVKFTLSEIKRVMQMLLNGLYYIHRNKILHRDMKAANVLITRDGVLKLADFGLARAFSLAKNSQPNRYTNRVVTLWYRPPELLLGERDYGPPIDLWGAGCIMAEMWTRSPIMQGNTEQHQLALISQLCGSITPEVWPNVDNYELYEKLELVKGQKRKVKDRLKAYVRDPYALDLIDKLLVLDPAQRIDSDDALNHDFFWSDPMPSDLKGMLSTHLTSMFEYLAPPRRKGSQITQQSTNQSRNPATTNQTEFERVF
T1 sequence (O60563 whole entry partner): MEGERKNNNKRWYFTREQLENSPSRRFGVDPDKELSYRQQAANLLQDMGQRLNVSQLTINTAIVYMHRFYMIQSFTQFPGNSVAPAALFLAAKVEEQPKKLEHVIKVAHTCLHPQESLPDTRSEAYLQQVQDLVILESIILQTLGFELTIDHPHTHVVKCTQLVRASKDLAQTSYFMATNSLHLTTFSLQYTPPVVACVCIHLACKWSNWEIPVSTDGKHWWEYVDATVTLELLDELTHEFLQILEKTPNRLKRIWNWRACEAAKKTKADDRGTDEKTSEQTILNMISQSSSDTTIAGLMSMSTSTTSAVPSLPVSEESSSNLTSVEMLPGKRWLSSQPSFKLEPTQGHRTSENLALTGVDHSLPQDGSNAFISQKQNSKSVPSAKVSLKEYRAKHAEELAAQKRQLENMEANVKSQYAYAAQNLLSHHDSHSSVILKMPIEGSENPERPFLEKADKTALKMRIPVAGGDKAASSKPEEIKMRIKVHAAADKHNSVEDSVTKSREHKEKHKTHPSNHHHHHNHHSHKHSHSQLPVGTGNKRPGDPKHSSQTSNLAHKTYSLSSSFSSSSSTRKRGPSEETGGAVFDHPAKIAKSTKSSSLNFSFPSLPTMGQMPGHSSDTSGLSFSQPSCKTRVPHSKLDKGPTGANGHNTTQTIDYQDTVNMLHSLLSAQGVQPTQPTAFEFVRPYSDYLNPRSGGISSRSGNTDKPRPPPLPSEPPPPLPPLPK
T2 sequence (P06493 whole entry): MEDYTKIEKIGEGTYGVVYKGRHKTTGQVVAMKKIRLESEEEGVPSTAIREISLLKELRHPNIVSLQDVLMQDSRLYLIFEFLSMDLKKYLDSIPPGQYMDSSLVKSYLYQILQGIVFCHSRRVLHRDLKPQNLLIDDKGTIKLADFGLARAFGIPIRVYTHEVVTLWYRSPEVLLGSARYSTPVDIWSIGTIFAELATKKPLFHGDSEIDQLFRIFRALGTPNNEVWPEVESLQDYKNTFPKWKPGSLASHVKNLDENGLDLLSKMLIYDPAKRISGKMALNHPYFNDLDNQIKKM
T2 sequence (P14635 whole entry partner): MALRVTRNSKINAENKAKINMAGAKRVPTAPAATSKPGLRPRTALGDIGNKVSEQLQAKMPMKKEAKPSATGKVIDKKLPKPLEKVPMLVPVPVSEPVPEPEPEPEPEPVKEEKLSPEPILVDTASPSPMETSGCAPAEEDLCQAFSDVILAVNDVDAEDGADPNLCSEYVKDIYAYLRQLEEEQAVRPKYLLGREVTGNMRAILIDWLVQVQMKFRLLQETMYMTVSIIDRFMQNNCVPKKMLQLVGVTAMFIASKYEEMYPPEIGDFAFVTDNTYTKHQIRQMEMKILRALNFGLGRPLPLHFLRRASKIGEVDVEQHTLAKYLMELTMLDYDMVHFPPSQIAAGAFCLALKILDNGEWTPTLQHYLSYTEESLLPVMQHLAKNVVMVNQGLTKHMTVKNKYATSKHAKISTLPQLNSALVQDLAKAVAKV

Row | SMILES | IC50 [1, 3] | IC50 [1, 4] | IC50 [1, 5] | IC50 [1, 6] | IC50 [1, 7] | IC50 [1, 8] | Class [1] | inhibition at 1 µM (CDK9/CyclinT) | Ratio shCUL4A/shCTRL [2] | % degradation cyclin K-eGFP (cyclin KeGFP) | IC50 (OCI-AML5 cells; [9]) | IC50 [1, 10] | IC50 [1, 11] | IC50 [1, 12] | IC50 [1, 13] | IC50 [1, 14] | IC50 [1, 15] | % CDK9 inhibition (CDK9/CyclinT) | IC50 (OCI-AML5 cells; OCI-AML5 cells) | inhibition at 1 µM (CDK1)
1 | O=C(CC1CCCC1)Nc1ncc(SCc2cccnc2)s1 [UOM-005225] | 4.56 µM | 2.36 µM | 2.92 µM | 4.09 µM | 4.06 µM | 3 µM | 2 | 73% | 1.07 | 2% | 3.79 µM |  |  |  |  |  |  |  |  | 
2 | C=C(C(=O)Nc1ncc(SCc2cccnc2)s1)c1ccc2c(c1)[nH]c1ccc(Cl)cc12 [UOM-005447] | 5.41 µM | 3.21 µM | 3.43 µM | 3.94 µM | 4.09 µM | 4.74 µM | 2 | 73% | 0.72 | 63% | 7.36 µM |  |  |  |  |  |  |  |  | 
3 | O=C(Cc1ccc(N2CCCCC2)cc1)Nc1ncc(SCc2cccnc2)s1 [UOM-005607] | 0.866 µM | 0.792 µM | 3.01 µM | 2.19 µM | 2.05 µM | 0.909 µM | mixed 1-2 | 90% | 0.9 | 30% | 1.85 µM |  |  |  |  |  |  |  |  | 
4 | O=C(Cc1ccc(NC(=O)c2ccccc2)cc1)Nc1ncc(SCc2cccnc2)s1 [UOM-005478] | 1.06 µM | 0.548 µM | 1.08 µM | 1.05 µM | 1.02 µM | 0.355 µM | 2 | 82% | 0.95 | 8% | 1.35 µM |  |  |  |  |  |  |  |  | 
5 | O=C(Cc1ccc(NC(=O)C23CC4CC(CC(C4)C2)C3)cc1)Nc1ncc(SCc2cccnc2)s1 [UOM-005477] |  |  |  |  |  |  | 2 |  | 0.9 | 6% |  | 1.03 µM | 0.741 µM | 1.09 µM | 1.2 µM | 0.94 µM | 0.595 µM | 81% | 1.25 µM | 
6 | Cc1nc(CC(=O)Nc2ncc(SCc3cccnc3)s2)c(C)s1 [UOM-005227] | 6.24 µM | 7.68 µM | 6.5 µM | 4.79 µM | 4.79 µM | 5.39 µM |  | 53% | 1.12 | 0% | 5.63 µM |  |  |  |  |  |  |  |  | 
7 | CC(C)(C)OC(=O)N1CCC(C(=O)Nc2ncc(SCc3cccnc3)s2)CC1 [UOM-005205] |  |  |  |  |  |  |  |  | 0.65 | 32% |  | 5.11 µM | 2.99 µM | 2.94 µM | 5.08 µM | 3.3 µM | 4.3 µM | 40% | 2.92 µM | 
8 | CC(=O)N[C@@H]1CCC[C@H](C(=O)Nc2cc(-c3cnn4c3CC(C)(C)C4)c(Cl)cn2)C1 [AZD4573, reference compound] | 0.00109 µM | 0.00106 µM | 0.00106 µM | 0.00105 µM | 0.00167 µM | 0.000727 µM | 2 | 100% |  |  | 0.001 µM |  |  |  |  |  |  |  |  | 90%
9 | Cn1cc(CC(=O)Nc2ncc(SCc3cccnc3)s2)c2ccccc21 [UOM-005228] | 5.43 µM | 2.27 µM | 4.58 µM | 4.4 µM | 4.12 µM | 3.26 µM | 2 | 51% | 0.81 | 23% | 4.04 µM |  |  |  |  |  |  |  |  | 
10 | O=C(Cc1ccc(C(F)(F)F)cc1)Nc1ncc(SCc2cccnc2)s1 [UOM-005203] | 3.02 µM | 2.68 µM | 4.39 µM | 3.59 µM | 3.83 µM | 3.64 µM | mixed 1-2 | 72% | 1.13 | 51% | 4.29 µM |  |  |  |  |  |  |  |  | 
11 | O=C(Nc1ncc(SCc2cccnc2)s1)C1CCNCC1 [UOM-005283] | 3.7 µM | 4.18 µM | 4.64 µM | 3.9 µM | 3.02 µM | 2.84 µM |  | 71% | 0.91 | 4% | 3.86 µM |  |  |  |  |  |  |  |  | 
12 | CSc1ccc(CC(=O)Nc2ncc(SCc3cccnc3)s2)cc1 [UOM-005206] | 0.458 µM | 0.867 µM | 1.28 µM | 1.3 µM | 1.33 µM | 0.848 µM | mixed 1-2 | 67% | 1.77 | 76% | 1.18 µM |  |  |  |  |  |  |  |  | 
13 | O=C(Cc1ccc(NC(=O)c2ccccn2)cc1)Nc1ncc(SCc2cccnc2)s1 [UOM-005474] | 1 µM | 0.753 µM | 0.927 µM | 1.07 µM | 0.949 µM | 0.551 µM | 2 | 59% | 1.03 | 5% | 1.24 µM |  |  |  |  |  |  |  |  | 
14 | Cl.Cl.O=C(CC1CCNC1)Nc1ncc(SCc2cccnc2)s1 (stereo not drawn) [UOM-005300] | 5.41 µM | 3.38 µM | 5.42 µM | 4.45 µM | 2.9 µM | 3.01 µM | 2 | 64% | 1.07 | 5% | 7.07 µM |  |  |  |  |  |  |  |  | 
